Legend:
Assay in all cases: Microbial challenge testing in BPW
Type in all cases: cell-based
[1] = system: Staphylococcus aureus
Procedure: (§1) The microorganisms used in challenge tests are given in Table 3, designated as either ATCC (American Type Culture Collection) or wild type. These wild type organisms were problematic organisms previously isolated from chemical products. In the description for each organism, the bacteria are indicated as either GN (Gram negative) or GP (Gram positive).
(§2) All of the microorganisms were grown in Tryptose Soy Broth (TSB), DIFCO™ available from Becton, Dickinson and Company, containing 1% dextrose. Aspergillus niger and Candida albicans were incubated at 22° C.±2° C. for at least 96 hours. All bacteria were incubated at 35° C.±2° C. in a humidified incubator for at least 96 hours.
(§3) The following procedure was followed to determine the amount of each challenge material (inoculum broth) required to produce a 10^8 cfu/mL challenge, which is equivalent to a final test-sample microbial concentration of 10^5 to 10^6 cfu (colony-forming units)/mL.
(§4) Using a sterile serological pipette, 1 mL of the growth from each TSB culture was transferred into tubes containing 9 mL phosphate buffer (pH 7.2) and mixed thoroughly. This process was repeated to make serial 1:10 dilutions. Then 0.1 mL of each sample and dilution was inoculated onto agar plates to produce the equivalent of a further 1:10 dilution. C. albicans and A. niger were inoculated onto SDA and bacteria were inoculated onto Plate Count Agar (PCA), DIFCO™ available from Becton, Dickinson and Company. The 0.1 mL aliquots were evenly distributed on the plates using the spread-plate technique. The spread-plate technique is performed by spreading the aliquot over the entire plate surface using a sterile spreading rod while rotating the plate with a rotary auto-plater. After the inoculum was absorbed completely, each plate was inverted and incubated (fungi at 22° C.±2° C. and bacteria at 35° C.±2° C.).
(§5) After incubation for at least 48 hours, colonies that had developed on the agar plates were counted and recorded with the corresponding dilution. If counting had to be delayed temporarily, plates were refrigerated, preferably no more than 24 hours, until they could be counted. The number of cfu/mL was determined by multiplying the count by the dilution factor for that particular plate.
(§6) Turbidity in Nepholemetric Turbidity Units (NTU) was measured for each serial dilution using the HF-Micro 100 Model Turbidimeter. For each microorganism, the plate counts were compared to the turbidity readings.
(§7) Control substrates (“broth alone”) were prepared for each microorganism separately in triplicate by adding 13.5 mL of BPW (pH 7.0) containing 1% (w/v) dextrose to each 20-mL glass tube; then adding 1.5 mL challenge material to produce a final concentration at time zero of 10^5 to 10^6 cfu/mL and a total volume of 15 mL.
(§8) Test sample substrates were prepared containing each test material (1,4-CHDM, etc) or combination of test materials at the concentrations shown in Tables 5 and 6. Sample substrates were prepared in triplicate, except those substrates containing PE or CG which were prepared in duplicate. Substrates were prepared by adding BPW containing 1% (w/v) dextrose to each 20-mL glass tube, then adding the test material in the amount appropriate to achieve the desired weight/volume percent (g/100 mL) and to obtain a total volume of BPW with dextrose and test material of 13.5 mL. Then 1.5 mL challenge material was added to produce a final concentration at time zero of 10^5 to 10^6 cfu/mL of the respective organism and a total test sample substrate volume of 15 mL.
(§9) After mixing, all challenged substrates were incubated at 35° C.±2° C. for 14 days and then at ambient room temperature.

[2] = system: Bacillus subtilis
Procedure: as §1, §2, §3, §4, §5, §6, §7, §8, §9

[3] = system: Pseudomonas aeruginosa
Procedure: as §1, §2, §3, §4, §5, §6, §7, §8, §9

[4] = system: Escherichia coli
Procedure: as §1, §2, §3, §4, §5, §6, §7, §8, §9

[5] = system: Candida albicans
Procedure: as §1, §2
(§10) Aspergillus niger and Candida albicans were also grown on Sabouraud dextrose agar (SDA) at 22° C.±2° C. for 7 to 14 days or until full sporulation was achieved.
as §3, §4, §5, §6
On the day of challenge, the Candida albicans inoculum broth was poured through non-absorbent sterile gauze and centrifuged. The […] was then diluted with phosphate buffer (pH 7.2) until the desired turbidity was reached. Using a hemocytometer, a determination was made whether the challenge contained the desired concentration. Dilutions were made through 1.0×10^8 and three SDA spread plates were inoculated with 0.1 mL of each dilution.
as §7
(§11) Test sample substrates were prepared containing each test material (1,4-CHDM, etc) or combination of test materials at the concentrations shown in Tables 5 and 6.

[6] = system: Aspergillus niger
Procedure: as §1, §2, §10, §3, §4, §5, §6
Aspergillus niger cultures were harvested and spores dislodged from the SDA on which they were grown by rubbing the growth gently with a sterile inoculating loop. The spores were then mixed into the broth culture that had been incubated with a sterile magnetic stir bar to reduce pellicle formation. The spore-culture mixture was filtered repeatedly through sterile, non-absorbent cotton and harvested repeatedly, adjusting vegetative cells and spores to a level of 1.0×10^8. A hemocytometer was used to verify the final challenge concentration.
as §7, §11

O=c1[nH]sc2ccccc12 [BIT, 1,2-benzisothiazolin-3-one]
Grade code S. aureus ([1]; 0.05%, 30 days incubation): 4 (1001 to 10,000 colonies (thus 10,000 cfu/mL to 100,000 cfu/mL))
Grade code S. aureus ([1]; 0.2%, 3 days incubation): 4 (1001 to 10,000 colonies (thus 10,000 cfu/mL to 100,000 cfu/mL))
Grade code S. aureus ([1]; 0.2%, 14 days incubation): 3 (101 to 1000 colonies (thus 1000 to 10,000 cfu/mL))
Grade code S. aureus ([1]; 0.2%, 30 days incubation): 3 (101 to 1000 colonies (thus 1000 to 10,000 cfu/mL))
Grade code B. subtilis ([2]; 0.05%, 3 days incubation): 4 (1001 to 10,000 colonies (thus 10,000 cfu/mL to 100,000 cfu/mL))
Grade code B. subtilis ([2]; 0.05%, 14 days incubation): 4 (1001 to 10,000 colonies (thus 10,000 cfu/mL to 100,000 cfu/mL))
Grade code B. subtilis ([2]; 0.05%, 30 days incubation): 4 (1001 to 10,000 colonies (thus 10,000 cfu/mL to 100,000 cfu/mL))
Grade code B. subtilis ([2]; 0.2%, 3 days incubation): 4 (1001 to 10,000 colonies (thus 10,000 cfu/mL to 100,000 cfu/mL))
Grade code B. subtilis ([2]; 0.2%, 14 days incubation): 4 (1001 to 10,000 colonies (thus 10,000 cfu/mL to 100,000 cfu/mL))
Grade code B. subtilis ([2]; 0.2%, 30 days incubation): 4 (1001 to 10,000 colonies (thus 10,000 cfu/mL to 100,000 cfu/mL))
Grade code P. aeruginosa ([3]; 0.05%, 3 days incubation): 4 (1001 to 10,000 colonies (thus 10,000 cfu/mL to 100,000 cfu/mL))
Grade code P. aeruginosa ([3]; 0.05%, 13 days incubation): 4 (1001 to 10,000 colonies (thus 10,000 cfu/mL to 100,000 cfu/mL))
Grade code P. aeruginosa ([3]; 0.05%, 30 days incubation): 4 (1001 to 10,000 colonies (thus 10,000 cfu/mL to 100,000 cfu/mL))
Grade code P. aeruginosa ([3]; 0.2%, 3 days incubation): 3 (101 to 1000 colonies (thus 1000 to 10,000 cfu/mL))
Grade code P. aeruginosa ([3]; 0.2%, 13 days incubation): 4 (1001 to 10,000 colonies (thus 10,000 cfu/mL to 100,000 cfu/mL))
Grade code P. aeruginosa ([3]; 0.2%, 30 days incubation): 4 (1001 to 10,000 colonies (thus 10,000 cfu/mL to 100,000 cfu/mL))
Grade code E. coli ([4]; 0.05%, 3 days incubation): 4 (1001 to 10,000 colonies (thus 10,000 cfu/mL to 100,000 cfu/mL))
Grade code E. coli ([4]; 0.05%, 14 days incubation): 4 (1001 to 10,000 colonies (thus 10,000 cfu/mL to 100,000 cfu/mL))
Grade code E. coli ([4]; 0.05%, 30 days incubation): 4 (1001 to 10,000 colonies (thus 10,000 cfu/mL to 100,000 cfu/mL))
Grade code E. coli ([4]; 0.2%, 3 days incubation): 1 (1 to 51 colonies counted (thus 10 to 510 cfu/mL))
Grade code E. coli ([4]; 0.2%, 14 days incubation): 0 (No growth detected or <1 colony (thus <10 cfu/mL))
Grade code E. coli ([4]; 0.2%, 30 days incubation): 0 (No growth detected or <1 colony (thus <10 cfu/mL))
Grade code C. albicans ([5]; 0.05%, 3 days incubation): 4 (1001 to 10,000 colonies (thus 10,000 cfu/mL to 100,000 cfu/mL))
Grade code C. albicans ([5]; 0.05%, 14 days incubation): 4 (1001 to 10,000 colonies (thus 10,000 cfu/mL to 100,000 cfu/mL))
Grade code C. albicans ([5]; 0.05%, 30 days incubation): 4 (1001 to 10,000 colonies (thus 10,000 cfu/mL to 100,000 cfu/mL))
Grade code C. albicans ([5]; 0.2%, 3 days incubation): 4 (1001 to 10,000 colonies (thus 10,000 cfu/mL to 100,000 cfu/mL))
Grade code C. albicans ([5]; 0.2%, 14 days incubation): 3 (101 to 1000 colonies (thus 1000 to 10,000 cfu/mL))
Grade code C. albicans ([5]; 0.2%, 30 days incubation): 3 (101 to 1000 colonies (thus 1000 to 10,000 cfu/mL))
Grade code A. niger ([6]; 0.05%, 3 days incubation): 4
Grade code A. niger ([6]; 0.05%, 13 days incubation): 4
Grade code A. niger ([6]; 0.05%, 30 days incubation): 4
Grade code A. niger ([6]; 0.2%, 3 days incubation): 4
Grade code A. niger ([6]; 0.2%, 13 days incubation): 4
Grade code A. niger ([6]; 0.2%, 30 days incubation): 4

From patent US20110028566A1, “COMPOSITIONS AND PRODUCTS CONTAINING CYCLOALIPHATIC DIOL ANTIMICROBIAL AGENTS AND METHODS OF USING THE COMPOSITIONS AND PRODUCTS” (EASTMAN CHEMICAL COMPANY, priority 2009, published 2011)
